Assay results published in US8575091B1, “Amylin analogues and pharmaceutical compositions thereof” (Novo Nordisk A/S, priority 2012, dated 2013).
Where two headings read alike, the source gives them in different places. Numbered stars: 1 amine (or outer) side, 2 acyl side, 3 side chain; on linkers, the order of the positions; unused ones are H or OH. Bridge positions count the residues as written; N and C are the ends. Side chains are listed from the residue outwards. Peptide text beside a SMILES is read from it. * marks the point of attachment. C20 diacid = O=C(O)CCCCCCCCCCCCCCCCCCC(=O)*; γGlu = O=C(O)[C@H](CCC(=O)[*:2])N[*:1]; AEEA = NCCOCCOCC(=O)O

How the values were obtained:
[1] = target: T1, human amylin receptor (amylin 3(a) receptor: human calcitonin receptor + RAMP-3) (Homo sapiens, UniProt O60896+P30988); assay: Assay (II)a functional assay, human amylin receptor (CRE luciferase, BHK cells); type: cell-based; settings: for EC50: functional assay, human amylin receptor, read-out: hAmylin-R funct. EC50
T1 construct: expressed in transfected cells
T1 sequence (P30988 25-474): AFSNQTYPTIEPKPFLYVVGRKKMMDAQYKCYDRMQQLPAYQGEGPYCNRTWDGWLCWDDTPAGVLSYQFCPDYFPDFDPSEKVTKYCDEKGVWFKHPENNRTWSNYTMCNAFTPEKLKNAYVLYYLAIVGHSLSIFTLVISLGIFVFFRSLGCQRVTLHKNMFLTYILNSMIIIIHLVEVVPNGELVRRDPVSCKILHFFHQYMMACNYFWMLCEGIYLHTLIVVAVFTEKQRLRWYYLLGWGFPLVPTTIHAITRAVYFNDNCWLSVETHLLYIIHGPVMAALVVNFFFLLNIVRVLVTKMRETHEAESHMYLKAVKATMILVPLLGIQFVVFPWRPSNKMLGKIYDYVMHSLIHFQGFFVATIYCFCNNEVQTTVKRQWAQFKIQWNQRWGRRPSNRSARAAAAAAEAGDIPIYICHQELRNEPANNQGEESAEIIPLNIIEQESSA
T1 sequence (O60896 24-148 partner): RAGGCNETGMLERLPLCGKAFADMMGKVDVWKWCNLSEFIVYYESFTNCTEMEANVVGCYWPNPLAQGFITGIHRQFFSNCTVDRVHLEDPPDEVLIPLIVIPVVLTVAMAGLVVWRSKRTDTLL
Protocol: Assay (II)—Functional Assays
Consequently, transcription is activated by promoters containing multiple copies of the cAMP response element (CRE).
The cell line was further transfected with RAMP-3, using standard methods.
After incubation overnight at 37° C. and 5% CO2, the growth medium was replaced by 50 μl/well assay medium (DMEM (without phenol red), Glutamax™, 10% FBS, and 10 mM Hepes, pH 7.4). Further, 50 μl/well of standard or sample in assay buffer were added. After 3 hours incubation at 37° C. and 5% CO2, the assay medium with standard or sample were removed and replaced by 100 μl/well PBS. Further, 100 μl/well LucLite™ was added. The plates were sealed and incubated at room temperature for 30 minutes. Finally, luminescence was measured on a TopCounter (Packard) in SPC (single photon counting) mode.

rat amylin receptor = target: T2, rat amylin receptor (Rattus norvegicus, UniProt P32214+Q9JJ73); assay: Assay (VI) binding to the rat amylin receptor; settings: rCTR bind IC50 divided by rAmylin-R bind IC50
T2 construct: expressed in transfected cells; host or cells: BHK tk'ts 13 (transient, FuGENE 6), membranes
T2 sequence (P32214 25-479 isoform P32214-2 limits assumed): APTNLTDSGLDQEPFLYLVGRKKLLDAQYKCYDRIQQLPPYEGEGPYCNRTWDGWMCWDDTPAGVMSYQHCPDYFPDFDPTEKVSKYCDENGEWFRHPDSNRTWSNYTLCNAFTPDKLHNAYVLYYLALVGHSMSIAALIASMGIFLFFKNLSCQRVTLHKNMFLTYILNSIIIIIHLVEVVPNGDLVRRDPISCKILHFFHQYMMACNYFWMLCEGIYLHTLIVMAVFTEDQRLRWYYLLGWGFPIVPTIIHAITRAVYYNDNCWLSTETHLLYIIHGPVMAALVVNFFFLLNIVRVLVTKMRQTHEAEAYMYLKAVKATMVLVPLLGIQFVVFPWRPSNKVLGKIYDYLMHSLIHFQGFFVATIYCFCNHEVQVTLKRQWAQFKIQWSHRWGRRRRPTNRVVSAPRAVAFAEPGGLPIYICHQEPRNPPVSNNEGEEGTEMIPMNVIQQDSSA
T2 sequence (Q9JJ73 23-147 partner): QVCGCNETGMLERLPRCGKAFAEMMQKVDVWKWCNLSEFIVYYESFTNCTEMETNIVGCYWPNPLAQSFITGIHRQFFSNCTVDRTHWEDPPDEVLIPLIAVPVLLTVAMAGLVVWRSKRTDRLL
Protocol: Assay (VI)—Determination of the Binding to the Rat Amylin Receptor
The assay was performed as described above (Assay (V)—Determination of binding to the human amylin receptor) with the exception that we used membranes prepared from BHK tk'ts 13 cells that were transiently transfected with the rat calcitonin receptor rat RAMP 3 at an equimolar ratio […]. The BHK tk'ts 13 cells were transiently transfected with rat calcitonin receptor using FuGENE® 6 (Roche), according to the manufacturer's recommendations. Cells were grown in DMEM with 10% FBS and 1% Pen/Strep. Approximately 48 hours after transfection, the cells were harvested and membranes were prepared.

human amylin receptor = target: T3, human amylin receptor (Homo sapiens, UniProt O60896+P30988); assay: Assay (V) binding to the human amylin receptor (SPA, 125I-rat amylin); settings: for IC50: read-out: hAmylin-R bind IC50; for Ratio hCT/hAmylin binding: human binding ratio, included for comparison
T3 construct: expressed in transfected cells
T3 sequence (P30988 25-474): T1 sequence (P30988 25-474)
T3 sequence (O60896 24-148 partner): T1 sequence (O60896 24-148 partner)
Summary of the method: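 IC50, taken as receptor affinity, came from one-site binding competition analysis of scintillation proximity counts. Amylin 3(a)/CRE-luc cell membranes (35 ng/μL final) were mixed with SPA beads (0.05 mg/well) in 50 mM Hepes pH 7.4 containing CaCl2, MgCl2, 0.1% OA and 0.02% Tween20.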

[2] = target: T4, human calcitonin receptor (Homo sapiens, UniProt P30988); assay: Assay (VII) binding to the human calcitonin receptor (SPA, 125I-Calcitonin); settings: read-out: hCTR bind IC50;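 further: cell membranes coupled to SPA beads, competitive displacement read by scintillation counting, IC50 derived from a one-site competition fit as a measure of receptor affinity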
T4 construct: expressed in transfected cells
T4 sequence (P30988 25-474): T1 sequence (P30988 25-474)

[3] = target: T4, human calcitonin receptor; assay: Assay (II)a functional assay, human calcitonin receptor (CRE luciferase, BHK cells);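 further: luminescence from a CRE-driven luciferase reporter, read by single photon counting after cells were exposed to test samples for 3 h at 37 °C under 5% CO2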; type: cell-based; settings: read-out: hCTR funct. EC50
[4] = Table 6, human functional selectivity (hCTR EC50 / hAmylin-R EC50)
[5] = human amylin receptor membranes, SPA

Row | Compound | Ratio hCT/hAmylin funct. [1, 4] | EC50 [1] [pM] | Ratio hCT/hAmylin funct. ([1]; hCTR funct. EC50 divided by hAmylin-R funct. EC50) | Ratio rCT/rAmylin binding (rat amylin receptor) | IC50 (human amylin receptor; binding to human amylin receptor) [pM] | IC50 (human amylin receptor; [5]) [pM] | Ratio hCT/hAmylin binding (human amylin receptor) | IC50 [2] [pM] | EC50 [3] [pM]
1 | CC(C)C[C@H](NC(=O)[C@H](CCCNC(=N)N)NC(=O)[C@H](CCC(N)=O)NC(=O)[C@@H](NC(=O)[C@H](C)NC(=O)[C@@H]1CSSC[C@H](NC(=O)[C@H](CCCCN)NC(=O)CC[C@H](NC(=O)CCCCCCCCCCCCCCCCCCC(=O)O)C(=O)O)C(=O)N[C@@H](CC(N)=O)C(=O)N[C@@H]([C@@H](C)O)C(=O)N[C@@H](C)C(=O)N[C@@H]([C@@H](C)O)C(=O)N1)[C@@H](C)O)C(=O)N[C@@H](C)C(=O)N[C@@H](CCC(=O)O)C(=O)N[C@@H](Cc1ccccc1)C(=O)N[C@@H](CC(C)C)C(=O)N[C@@H](CCCNC(=N)N)C(=O)N[C@@H](Cc1c[nH]cn1)C(=O)N[C@@H](CO)C(=O)N[C@@H](CO)C(=O)N1CCC[C@H]1C(=O)N[C@@H](CC(N)=O)C(=O)N[C@@H](Cc1ccccc1)C(=O)NCC(=O)N[C@@H](C)C(=O)N1CCC[C@H]1C(=O)N[C@@H](CC(C)C)C(=O)N[C@@H](CO)C(=O)N[C@@H](CO)C(=O)N[C@H](C(=O)N[C@@H](CC(N)=O)C(=O)N[C@H](C(=O)NCC(=O)N[C@@H](CO)C(=O)N[C@@H](CC(N)=O)C(=O)N[C@H](C(=O)N1CCC[C@H]1C(N)=O)[C@@H](C)O)C(C)C)[C@@H](C)O [Example 5] ({C20 diacid-γGlu}-KCNTATCATQRLAEFLRHSSPNFGAPLSSTNVGSNTP-NH2; disulfide 2-7) | 1.0 | 162 | 1.0 | 3.6 | 374 | 374 | 1.4 | 537 | 160
2 | CC[C@H](C)[C@H](NC(=O)[C@H](C)NC(=O)CNC(=O)[C@H](Cc1ccccc1)NC(=O)[C@H](CC(N)=O)NC(=O)[C@@H]1CCCN1C(=O)[C@H](CO)NC(=O)[C@H](CO)NC(=O)[C@H](Cc1c[nH]cn1)NC(=O)[C@H](CCCNC(=N)N)NC(=O)[C@H](CC(C)C)NC(=O)[C@H](Cc1ccccc1)NC(=O)[C@H](CCC(=O)O)NC(=O)[C@H](C)NC(=O)[C@H](CC(C)C)NC(=O)[C@H](CCCNC(=N)N)NC(=O)[C@H](CCC(N)=O)NC(=O)[C@@H](NC(=O)[C@H](C)NC(=O)[C@@H]1CSSC[C@H](NC(=O)[C@@H](N)CCCCNC(=O)CC[C@H](NC(=O)CCCCCCCCCCCCCCCCCCC(=O)O)C(=O)O)C(=O)N[C@@H](CC(N)=O)C(=O)N[C@@H]([C@@H](C)O)C(=O)N[C@@H](C)C(=O)N[C@@H]([C@@H](C)O)C(=O)N1)[C@@H](C)O)C(=O)N1CCC[C@H]1C(=O)N[C@@H](CO)C(=O)N[C@@H](CO)C(=O)N[C@H](C(=O)N[C@@H](CC(N)=O)C(=O)N[C@H](C(=O)NCC(=O)N[C@@H](CO)C(=O)N[C@@H](CC(N)=O)C(=O)N[C@H](C(=O)N1CCC[C@H]1C(N)=O)[C@@H](C)O)C(C)C)[C@@H](C)O [Example 12] (H-K([γGlu-C20 diacid])CNTATCATQRLAEFLRHSSPNFGAIPSSTNVGSNTP-NH2; disulfide 2-7) | 1.8 | 101 | – | 5.0 | – | 142 | 2.5 | 353 | 185
3 | CC[C@H](C)[C@H](NC(=O)[C@H](C)NC(=O)CNC(=O)[C@H](Cc1ccccc1)NC(=O)[C@H](CC(N)=O)NC(=O)[C@@H]1CCCN1C(=O)[C@H](CO)NC(=O)[C@H](CO)NC(=O)[C@H](Cc1c[nH]cn1)NC(=O)[C@H](CCCNC(=N)N)NC(=O)[C@H](CC(C)C)NC(=O)[C@H](Cc1ccccc1)NC(=O)[C@H](Cc1c[nH]cn1)NC(=O)[C@H](C)NC(=O)[C@H](CC(C)C)NC(=O)[C@H](CCCNC(=N)N)NC(=O)[C@H](CCC(N)=O)NC(=O)[C@@H](NC(=O)[C@H](C)NC(=O)[C@@H]1CSSC[C@H](NC(=O)[C@@H](N)CCCCNC(=O)CC[C@H](NC(=O)CCCCCCCCCCCCCCCCCCC(=O)O)C(=O)O)C(=O)N[C@@H](CC(N)=O)C(=O)N[C@@H]([C@@H](C)O)C(=O)N[C@@H](C)C(=O)N[C@@H]([C@@H](C)O)C(=O)N1)[C@@H](C)O)C(=O)N1CCC[C@H]1C(=O)N[C@@H](CO)C(=O)N[C@@H](CO)C(=O)N[C@H](C(=O)N[C@@H](CC(N)=O)C(=O)N[C@H](C(=O)NCC(=O)N1CCC[C@H]1C(=O)N[C@@H](CC(N)=O)C(=O)N[C@H](C(=O)N1CCC[C@H]1C(N)=O)[C@@H](C)O)C(C)C)[C@@H](C)O [Example 115] (H-K([γGlu-C20 diacid])CNTATCATQRLAHFLRHSSPNFGAIPSSTNVGPNTP-NH2; disulfide 2-7 (inferred); N-terminus and C-terminus assumed) | 0.8 | – | – | 3.0 | – | – | 1.2 | – | –
4 | CC[C@H](C)[C@H](NC(=O)[C@H](C)NC(=O)CNC(=O)[C@H](Cc1ccccc1)NC(=O)[C@H](CC(N)=O)NC(=O)[C@@H]1CCCN1C(=O)[C@H](CO)NC(=O)[C@H](CO)NC(=O)[C@H](Cc1c[nH]cn1)NC(=O)[C@H](CCCNC(=N)N)NC(=O)[C@H](CC(C)C)NC(=O)[C@H](Cc1ccccc1)NC(=O)[C@H](CCC(=O)O)NC(=O)[C@H](C)NC(=O)[C@H](CC(C)C)NC(=O)[C@H](CCCNC(=N)N)NC(=O)[C@H](CCC(N)=O)NC(=O)[C@@H](NC(=O)[C@H](C)NC(=O)[C@@H]1CSSC[C@H](NC(=O)[C@H](CCCCN)NC(=O)COCCOCCNC(=O)COCCOCCNC(=O)CC[C@H](NC(=O)CCCCCCCCCCCCCCCCCCC(=O)O)C(=O)O)C(=O)N[C@@H](CC(N)=O)C(=O)N[C@@H]([C@@H](C)O)C(=O)N[C@@H](C)C(=O)N[C@@H]([C@@H](C)O)C(=O)N1)[C@@H](C)O)C(=O)N1CCC[C@H]1C(=O)N[C@@H](CO)C(=O)N[C@@H](CO)C(=O)N[C@H](C(=O)N[C@@H](CC(N)=O)C(=O)N[C@H](C(=O)NCC(=O)N[C@@H](CO)C(=O)N[C@@H](CC(N)=O)C(=O)N[C@H](C(=O)N1CCC[C@H]1C(N)=O)[C@@H](C)O)C(C)C)[C@@H](C)O [Example 20] ({C20 diacid-γGlu-AEEA-AEEA}-KCNTATCATQRLAEFLRHSSPNFGAIPSSTNVGSNTP-NH2; disulfide 2-7) | 3.6 | – | – | 6.4 | – | – | 3.6 | – | –
